# In ChEMBL document CHEMBL5150065, “Design, synthesis, and bioevaluation of imidazo [1,2-a] pyrazine derivatives as tubulin polymerization inhibitors with potent anticancer activities” (Bioorg Med Chem, 2022):
# Activity calls are given as the source filed them. No cut-off for these calls is given here.
# Columns and labels:
# HCT-116 [1] = test: Induction of cell cycle arrest in human HCT-116 cells assessed as increase in G2/M phase cells at 20 nM measured after 48 hrs by propidium iodide/RNase staining based flow cytometry analysis (reference value: […] %); type: functional
# Tubulin (Homo sapiens) [2] = target: T1, Tubulin (Homo sapiens) (UniProt P68371+Q9H4B7+P0DPH7+P68366+Q13509+Q71U36+P04350+Q3ZCM7+P07437+P68363+Q9BQE3+Q6PEY2+Q13885+Q9BVA1+Q9BUF5); test: Induction of microtubule disruption in human HCT-116 cells assessed as disintegrated microtubules at 20 to 60 nM incubated for 48 hrs by DAPI staining based confocal microscopic immunofluorescence analysis; type: cell-based; conditions: dose 20-60 nM
# HCT-116 [3] = test: Induction of cell cycle arrest in human HCT-116 cells assessed as increase in G2/M phase cells at 80 nM measured after 48 hrs by propidium iodide/RNase staining based flow cytometry analysis (reference value: […] %); type: functional
# Tubulin (Homo sapiens) [4] = target: T1, Tubulin (Homo sapiens); test: Induction of microtubule disruption in human HCT-116 cells assessed as short microtubules at 20 to 60 nM incubated for 48 hrs by DAPI staining based confocal microscopic immunofluorescence analysis; type: cell-based; conditions: dose 20-60 nM
# HCT-116 [5] = test: Inhibition of cell migration in human HCT-116 cells assessed as suppression of wound closure at 40 nM incubated for 48 hrs by wound healing assay relative to control; type: functional
# HCT-116 [6] = test: Induction of cell cycle arrest in human HCT-116 cells assessed as increase in G2/M phase cells at 120 nM measured after 48 hrs by propidium iodide/RNase staining based flow cytometry analysis (reference value: […] %); type: functional
# Tubulin (Sus scrofa) = Tubulin (Sus scrofa) (UniProt P02554+P02550); test: (§1) Inhibition of pig brain tubulin polymerization in the presence of GTP by spectrophotometric analysis; conditions: DDE = dose-dependent effect
# Sequence of Tubulin (Sus scrofa) (P02550 whole entry, looked up): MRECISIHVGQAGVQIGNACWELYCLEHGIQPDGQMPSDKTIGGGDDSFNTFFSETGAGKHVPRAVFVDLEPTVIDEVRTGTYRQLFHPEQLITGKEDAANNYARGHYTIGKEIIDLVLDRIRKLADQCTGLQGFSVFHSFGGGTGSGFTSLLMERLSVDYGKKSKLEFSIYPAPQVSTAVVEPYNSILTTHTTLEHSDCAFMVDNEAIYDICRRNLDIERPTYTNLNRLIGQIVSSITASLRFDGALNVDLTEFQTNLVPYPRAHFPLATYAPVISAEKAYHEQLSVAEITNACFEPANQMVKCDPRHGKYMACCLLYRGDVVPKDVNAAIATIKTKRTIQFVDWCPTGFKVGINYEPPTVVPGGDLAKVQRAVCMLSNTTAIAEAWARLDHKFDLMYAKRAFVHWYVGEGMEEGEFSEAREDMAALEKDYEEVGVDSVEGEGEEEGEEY
# Sequence of Tubulin (Sus scrofa) (P02554 whole entry, looked up): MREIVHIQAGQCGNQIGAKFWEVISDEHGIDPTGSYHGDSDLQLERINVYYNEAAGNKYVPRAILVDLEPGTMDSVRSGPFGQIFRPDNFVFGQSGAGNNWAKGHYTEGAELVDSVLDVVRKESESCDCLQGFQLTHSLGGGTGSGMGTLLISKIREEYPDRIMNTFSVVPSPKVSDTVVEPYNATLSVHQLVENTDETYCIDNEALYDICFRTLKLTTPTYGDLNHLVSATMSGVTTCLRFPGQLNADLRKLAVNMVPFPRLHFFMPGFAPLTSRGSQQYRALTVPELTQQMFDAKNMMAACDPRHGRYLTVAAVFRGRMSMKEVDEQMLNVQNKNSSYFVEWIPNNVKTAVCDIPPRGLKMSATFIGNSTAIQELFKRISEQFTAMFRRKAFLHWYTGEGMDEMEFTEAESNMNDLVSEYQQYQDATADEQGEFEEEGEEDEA
# Tubulin = Tubulin (Sus scrofa, UniProt P02554+P02550); test: as §1
# HCT-116 [7] = test: Induction of apoptosis in human HCT-116 cells assessed as total apoptotic cells at 120 nM incubated for 48 hrs by Annexin-V FITC/PI staining based flow cytometry analysis (reference value: 5.76 %); type: functional
# HCT-116 [8] = test: Antiproliferative activity against human HCT-116 cells assessed as inhibition of cell growth incubated for 48 hrs by MTT assay; type: functional, cell-based; conditions: HCT-116, 48 h
# HCT-116 [9] = test: Induction of apoptosis in human HCT-116 cells assessed as total apoptotic cells at 40 nM incubated for 48 hrs by Annexin-V FITC/PI staining based flow cytometry analysis (reference value: 5.76 %); type: functional
# HCT-116 [10] = test: Induction of apoptosis in human HCT-116 cells assessed as total apoptotic cells at 80 nM incubated for 48 hrs by Annexin-V FITC/PI staining based flow cytometry analysis (reference value: 5.76 %); type: functional
# HCT-116 [11] = test: Induction of cell cycle arrest in human HCT-116 cells assessed as S phase cells at 20 nM measured after 48 hrs by propidium iodide/RNase staining based flow cytometry analysis (reference value: […] %); type: functional
# HCT-116 [12] = test: Induction of cell cycle arrest in human HCT-116 cells assessed as G1 phase cells at 80 nM measured after 48 hrs by propidium iodide/RNase staining based flow cytometry analysis (reference value: 61.51 %); type: functional
# HCT-116 [13] = test: Induction of cell cycle arrest in human HCT-116 cells assessed as G1 phase cells at 20 nM measured after 48 hrs by propidium iodide/RNase staining based flow cytometry analysis (reference value: 61.51 %); type: functional
# HCT-116 [14] = test: Induction of cell cycle arrest in human HCT-116 cells assessed as S phase cells at 120 nM measured after 48 hrs by propidium iodide/RNase staining based flow cytometry analysis (reference value: […] %); type: functional
# MDA-MB-231 = test: Antiproliferative activity against human MDA-MB-231 cells assessed as inhibition of cell growth incubated for 48 hrs by MTT assay; type: functional, cell-based; conditions: MDA-MB-231, 48 h
# HCT-116 [15] = test: Induction of cell cycle arrest in human HCT-116 cells assessed as G1 phase cells at 40 nM measured after 48 hrs by propidium iodide/RNase staining based flow cytometry analysis (reference value: 61.51 %); type: functional
# HCT-116 [16] = test: Induction of cell cycle arrest in human HCT-116 cells assessed as increase in G2/M phase cells at 40 nM measured after 48 hrs by propidium iodide/RNase staining based flow cytometry analysis (reference value: […] %); type: functional
# HCT-116 [17] = test: Induction of cell cycle arrest in human HCT-116 cells assessed as S phase cells at 80 nM measured after 48 hrs by propidium iodide/RNase staining based flow cytometry analysis (reference value: […] %); type: functional
# HCT-116 [18] = test: Induction of apoptosis in human HCT-116 cells assessed as total apoptotic cells at 20 nM incubated for 48 hrs by Annexin-V FITC/PI staining based flow cytometry analysis (reference value: 5.76 %); type: functional
# HCT-116 [19] = test: Inhibition of cell migration in human HCT-116 cells assessed as suppression of wound closure at 10 nM incubated for 48 hrs by wound healing assay relative to control; type: functional
# HCT-116 [20] = test: Induction of cell cycle arrest in human HCT-116 cells assessed as S phase cells at 40 nM measured after 48 hrs by propidium iodide/RNase staining based flow cytometry analysis (reference value: […] %); type: functional
# A549 = test: Antiproliferative activity against human A549 cells assessed as inhibition of cell growth incubated for 48 hrs by MTT assay; type: functional, cell-based; conditions: A549, 48 h
# HepG2 = test: Antiproliferative activity against human HepG2 cells assessed as inhibition of cell growth incubated for 48 hrs by MTT assay; type: functional, cell-based; conditions: HepG2, 48 h
# HCT-116 [21] = test: Inhibition of cell migration in human HCT-116 cells assessed as suppression of wound closure at 20 nM incubated for 48 hrs by wound healing assay relative to control; type: functional
# HCT-116 [22] = test: Inhibition of cell migration in human HCT-116 cells assessed as suppression of wound closure at 80 nM incubated for 48 hrs by wound healing assay relative to control; type: functional
# HCT-116 [23] = test: Induction of cell cycle arrest in human HCT-116 cells assessed as G1 phase cells at 120 nM measured after 48 hrs by propidium iodide/RNase staining based flow cytometry analysis (reference value: 61.51 %); type: functional
structure (smiles),measurement,setting,value
COc1cc(-c2nccn3cc(-c4ccc5[nH]ccc5c4)nc23)cc(OC)c1OC,Activity,HCT-116 [1],21.11%
same,Activity,Tubulin (Homo sapiens) [2],Active
same,Activity,HCT-116 [3],79.23%
same,Activity,Tubulin (Homo sapiens) [4],Active
same,inhibition at 0.04 µM,HCT-116 [5],56.8%
same,Activity,HCT-116 [6],79.67%
same,inhibition,Tubulin (Sus scrofa),Dde
same,IC50,Tubulin,45700 nM
same,Activity,HCT-116 [7],50.07%
same,IC50,HCT-116 [8],23 nM
same,Activity,HCT-116 [9],29.53%
same,Activity,HCT-116 [10],37.2%
same,Activity,HCT-116 [11],17.47%
same,Activity,HCT-116 [12],11.9%
same,Activity,HCT-116 [13],61.42%
same,Activity,HCT-116 [14],12.16%
same,IC50,MDA-MB-231,74 nM
same,Activity,HCT-116 [15],60.42%
same,Activity,HCT-116 [16],17.6%
same,Activity,HCT-116 [17],8.87%
same,Activity,HCT-116 [18],6.25%
same,inhibition at 0.01 µM,HCT-116 [19],30.8%
same,Activity,HCT-116 [20],21.98%
same,IC50,A549,154 nM
same,IC50,HepG2,146 nM
same,inhibition at 0.02 µM,HCT-116 [21],55%
same,inhibition at 0.08 µM,HCT-116 [22],60.6%
same,Activity,HCT-116 [23],8.17%
COc1cc(-c2nccn3cc(-c4ccc(N)cc4)nc23)cc(OC)c1OC,IC50,HCT-116 [8],158 nM
same,IC50,MDA-MB-231,294 nM
same,IC50,A549,287 nM
same,IC50,HepG2,252 nM
COc1cc(C(=O)c2cn3ccc(C)c([N+](=O)[O-])c3n2)cc(OC)c1OC,IC50,HCT-116 [8],> 10000 nM
same,IC50,MDA-MB-231,> 10000 nM
same,IC50,A549,> 10000 nM
same,IC50,HepG2,> 10000 nM
COc1cc(C(=O)c2cn3ccc(C(F)(F)F)cc3n2)cc(OC)c1OC,IC50,HCT-116 [8],> 10000 nM
same,IC50,MDA-MB-231,> 10000 nM
same,IC50,A549,> 10000 nM
same,IC50,HepG2,> 10000 nM
COc1cc(-c2nccn3cc(-c4ccc(F)cc4)nc23)cc(OC)c1OC,IC50,HCT-116 [8],263 nM
same,IC50,MDA-MB-231,401 nM
same,IC50,A549,137 nM
same,IC50,HepG2,217 nM
COc1cc(-c2nccn3cc(-c4ccc(C)cc4)nc23)cc(OC)c1OC,IC50,HCT-116 [8],74 nM
same,IC50,MDA-MB-231,53 nM
same,IC50,A549,135 nM
same,IC50,HepG2,160 nM
COc1cc(-c2nccn3cc(-c4ccc(O)cc4)nc23)cc(OC)c1OC,IC50,HCT-116 [8],901 nM
same,IC50,MDA-MB-231,> 10000 nM
same,IC50,A549,> 10000 nM
same,IC50,HepG2,823 nM
COc1cc(C(=O)c2cn3ccc(C)cc3n2)cc(OC)c1OC,IC50,HCT-116 [8],3060 nM
same,IC50,MDA-MB-231,9280 nM
same,IC50,A549,> 10000 nM
same,IC50,HepG2,6700 nM
COc1ccc(-c2cn3ccnc(-c4cc(OC)c(OC)c(OC)c4)c3n2)cc1[N+](=O)[O-],IC50,HCT-116 [8],> 10000 nM
same,IC50,MDA-MB-231,> 10000 nM
same,IC50,A549,> 10000 nM
same,IC50,HepG2,> 10000 nM
COc1cc(C(=O)c2cn3ccnc(-c4ccc(F)cc4)c3n2)cc(OC)c1OC,IC50,HCT-116 [8],> 10000 nM
same,IC50,MDA-MB-231,> 10000 nM
same,IC50,A549,> 10000 nM
same,IC50,HepG2,> 10000 nM
COc1cc(C(=O)c2cn3ccnc(-c4ccc(C)cc4)c3n2)cc(OC)c1OC,IC50,HCT-116 [8],> 10000 nM
same,IC50,MDA-MB-231,> 10000 nM
same,IC50,A549,7900 nM
same,IC50,HepG2,> 10000 nM
COc1cc(-c2nccn3cc(-c4ccc([N+](=O)[O-])cc4)nc23)cc(OC)c1OC,IC50,HCT-116 [8],> 10000 nM
same,IC50,MDA-MB-231,> 10000 nM
same,IC50,A549,> 10000 nM
same,IC50,HepG2,> 10000 nM
COc1ccc(-c2cn3ccnc(-c4cc(OC)c(OC)c(OC)c4)c3n2)cc1N,IC50,HCT-116 [8],122 nM
same,IC50,MDA-MB-231,111 nM
same,IC50,A549,309 nM
same,IC50,HepG2,123 nM
